Activity calls are given as the source filed them. No cut-off for these calls is given here.
How the values were obtained:
[1] = target: cGMP-inhibited 3',5'-cyclic phosphodiesterase 3A (Homo sapiens) (UniProt Q14432); assay: Inhibition of PDE3A at 50 uM
Homo sapiens = species on record: Homo sapiens; assay: Inhibition of PAR4AP induced platelet aggregation at 25 uM; format: functional
[2] = target: Phosphodiesterase 3 (Homo sapiens) (UniProt Q14432+Q13370); assay: Inhibition of PDE3 at 6.25 uM; format: protein assay

Sequence of cGMP-inhibited 3',5'-cyclic phosphodiesterase 3A (Homo sapiens) (Q14432 whole entry): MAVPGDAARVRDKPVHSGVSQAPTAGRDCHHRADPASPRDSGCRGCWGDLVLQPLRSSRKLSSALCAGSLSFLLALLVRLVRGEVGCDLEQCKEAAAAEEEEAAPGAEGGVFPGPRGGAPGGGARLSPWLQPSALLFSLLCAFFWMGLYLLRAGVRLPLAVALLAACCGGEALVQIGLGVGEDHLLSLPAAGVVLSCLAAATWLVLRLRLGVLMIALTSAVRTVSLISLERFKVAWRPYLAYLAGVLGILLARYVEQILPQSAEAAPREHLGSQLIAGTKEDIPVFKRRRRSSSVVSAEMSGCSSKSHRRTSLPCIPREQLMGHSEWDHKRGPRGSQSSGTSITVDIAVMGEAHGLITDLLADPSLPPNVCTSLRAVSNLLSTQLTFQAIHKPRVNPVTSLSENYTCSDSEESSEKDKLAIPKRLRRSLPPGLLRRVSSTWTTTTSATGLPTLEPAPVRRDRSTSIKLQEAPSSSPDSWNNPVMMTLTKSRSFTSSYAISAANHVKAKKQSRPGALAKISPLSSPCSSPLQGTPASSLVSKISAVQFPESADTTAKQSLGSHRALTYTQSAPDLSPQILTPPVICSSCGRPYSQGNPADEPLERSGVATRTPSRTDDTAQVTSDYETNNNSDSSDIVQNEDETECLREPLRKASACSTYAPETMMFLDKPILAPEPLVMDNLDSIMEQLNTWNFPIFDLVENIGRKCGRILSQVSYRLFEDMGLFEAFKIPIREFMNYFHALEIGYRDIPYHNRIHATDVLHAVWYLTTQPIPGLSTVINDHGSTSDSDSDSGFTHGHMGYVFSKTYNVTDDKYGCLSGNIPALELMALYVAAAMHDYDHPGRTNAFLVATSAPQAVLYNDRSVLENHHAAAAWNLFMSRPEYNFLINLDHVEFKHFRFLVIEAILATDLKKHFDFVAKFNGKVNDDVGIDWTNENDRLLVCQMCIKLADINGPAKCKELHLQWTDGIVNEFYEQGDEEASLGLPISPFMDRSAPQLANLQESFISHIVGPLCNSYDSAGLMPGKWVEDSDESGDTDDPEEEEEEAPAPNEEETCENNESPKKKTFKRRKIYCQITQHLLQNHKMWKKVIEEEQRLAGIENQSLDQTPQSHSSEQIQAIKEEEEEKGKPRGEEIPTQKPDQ

Row | Structure (SMILES) | inhibition [1] | Activity (Homo sapiens) | inhibition [2]
1 | O=c1cc(N2CCOCC2)oc2cc(Oc3ccccc3)ccc12 | 43% |  | 
2 | O=c1cc(N2CCOCC2)oc2c(CCc3ccccc3)cccc12 | 28% |  | 
3 | Cc1c(C#Cc2ccccc2)ccc2c(=O)cc(N3CCOCC3)oc12 | 44% |  | 
4 | O=c1cc(N2CCOCC2)oc2c(OCc3cccnc3)cccc12 | 5% |  | 
5 | Cc1c(OCCN2CCN(C)CC2)ccc2c(=O)cc(N3CCOCC3)oc12 | -10% |  | 
6 | O=c1cc(N2CCOCC2)oc2cc(-c3ccccc3)ccc12 | 50% |  | 
7 | Cc1c(Oc2ccccc2)ccc2c(=O)cc(N3CCOCC3)oc12 | 78% |  | 
8 | O=c1cc(N2CCOCC2)oc2cc(OCc3ccccc3)ccc12 | 49% |  | 
9 | Cc1c(OCc2ccccc2)ccc2c(=O)cc(N3CCOCC3)oc12 | 86% | Active | 
10 | O=c1cc(N2CCOCC2)oc2cc(OCc3cccnc3)ccc12 | 19% |  | 
11 | O=c1cc(N2CCOCC2)oc2c(C#Cc3ccccc3)cccc12 | 60% |  | 
12 | O=c1cc(N2CCOCC2)oc2cc(C#Cc3ccccc3)ccc12 | 70% |  | 
13 | O=c1cc(N2CCOCC2)oc2c(-c3ccccc3)cccc12 | 35% |  | 
14 | O=c1cc(N2CCOCC2)oc2c(OCc3ccccc3)cccc12 | -7% |  | 
15 | Cc1c(-c2ccccc2)ccc2c(=O)cc(N3CCOCC3)oc12 | 83% |  | 
16 | COc1cc(-c2ccc(Cl)cc2)c2oc(N3CCOCC3)cc(=O)c2c1 | 63% |  | 
17 | Cc1c(OCc2cccnc2)ccc2c(=O)cc(N3CCOCC3)oc12 | 68% |  | 46%

From ChEMBL document CHEMBL1138146, “Analysis of anti-PDE3 activity of 2-morpholinochromone derivatives reveals multiple mechanisms of anti-platelet activity” (Bioorg Med Chem Lett, 2006)
